From article PMC7567097, “A nanoluciferase SARS-CoV-2 for rapid neutralization testing and screening of anti-infective drugs for COVID-19” (Nature Communications, 2020)
Where two headings read alike, the source gives them in different places.

What was measured:
SARS-CoV-2-Nluc [1] = assay: microbe, parasite or virus in culture; format: cell-based
COVID-19 = system: COVID-19; design: method as in PMID 32649078; conditions: 1063 patients hospitalized with COVID-19; placebo group 15 days; cited from earlier work
SARS-CoV-2-Nluc [2] = assay: microbe, parasite or virus in culture; format: cell-based; conditions: Severe acute respiratory syndrome coronavirus 2, Vero C1008, 48 h
[3] = Cytotoxicity assay (CCK-8, 72 h) in Vero E6 cells; format: cell-based, African green monkey; conditions: African green monkey, Vero E6 cells; for viability at 72 h: Vero, two replicates, read-out: cell viability (% of DMSO control)
Vero E6 cells = assay: Cytotoxicity assay (CCK-8, 72 h) in Vero E6 cells; format: cell-based, African green monkey; conditions: Vero, two replicates
in vitro = conditions: human; for viability: cell viability (% of DMSO control)

For `CCC(CC)COC(=O)[C@H](C)N[P@](=O)(OC[C@H]1O[C@@](C#N)(c2ccc3c(N)ncnn23)[C@H](O)[C@@H]1O)Oc1ccccc1` [Remdesivir], the EC50 (SARS-CoV-2-Nluc [1]; Severe acute respiratory syndrome coronavirus 2, 48 h) was 0.115 ± 0.007 µM, the EC50 (SARS-CoV-2-Nluc [1]; Severe acute respiratory syndrome coronavirus 2, read-out: EC50 (µM) Replicate 1) was 0.11 µM and the EC50 (SARS-CoV-2-Nluc [1]; Severe acute respiratory syndrome coronavirus 2, read-out: EC50 (µM) Replicate 2) was 0.12 µM. The recovery time (COVID-19) was 11 days, the EC50 (SARS-CoV-2-Nluc [2]) was 1.28 µM and the viability at 72 h ([3]; Concentration 0.00152416) was 100%. It also gave a viability at 72 h ([3]; Concentration 0.00457247) of 102%, a viability at 72 h ([3]; Concentration 0.0137174) of 91.3% and a viability at 72 h ([3]; Concentration 0.0411523) of 104%. The viability at 72 h ([3]; Concentration 0.123457) was 80.3%, the viability at 72 h ([3]; Concentration 0.37037) was 80.3% and the viability at 72 h ([3]; Concentration 1.11111) was 102%. For the same compound, the viability at 72 h ([3]; Concentration 3.33333) was 87.9%, the viability at 72 h ([3]; Concentration 10) was 68% and the CC50 at 72 h ([3]; 3-day cytotoxicity) was > 50 µM. For the same compound, the “cell viability (% of DMSO control)” value (Vero E6 cells; Concentration 0.00152416) was 98.69%, the “cell viability (% of DMSO control)” value (Vero E6 cells; Concentration 0.00457247) was 100.09% and the “cell viability (% of DMSO control)” value (Vero E6 cells; Concentration 0.0137174) was 99.13%. For the same compound, the “cell viability (% of DMSO control)” value (Vero E6 cells; Concentration 0.0411523) was 93.89%, the “cell viability (% of DMSO control)” value (Vero E6 cells; Concentration 0.123457) was 91.88% and the “cell viability (% of DMSO control)” value (Vero E6 cells; Concentration 0.37037) was 90.48%. The “cell viability (% of DMSO control)” value (Vero E6 cells; Concentration 1.11111) was 90.39%, the “cell viability (% of DMSO control)” value (Vero E6 cells; Concentration 3.33333) was 89.52% and the “cell viability (% of DMSO control)” value (Vero E6 cells; Concentration 10) was 70.92%. For the same compound, the CC50 (in vitro; CC50) was 32.5 µM, the CC50 (in vitro; CC50 (µM) Replicate 1) was 29 µM and the CC50 (in vitro; CC50 (µM) Replicate 2) was 36.4 µM. The viability (in vitro; Concentration 0.00152416) was 100%, the viability (in vitro; Concentration 0.00457247) was 99.8% and the viability (in vitro; Concentration 0.0137174) was 102%. The viability (in vitro; Concentration 0.0411523) was 102%, the viability (in vitro; Concentration 0.123457) was 101% and the viability (in vitro; Concentration 0.37037) was 96.9%. The viability (in vitro; Concentration 1.11111) was 100%, the viability (in vitro; Concentration 3.33333) was 101% and the viability (in vitro; Concentration 10) was 84.9%. The “cell viability (% of DMSO control)” value (A549-hACE2 cells; Concentration 0.00152416) was 98.72%, the “cell viability (% of DMSO control)” value (A549-hACE2 cells; Concentration 0.00457247) was 97.64% and the “cell viability (% of DMSO control)” value (A549-hACE2 cells; Concentration 0.0137174) was 95.55%. The “cell viability (% of DMSO control)” value (A549-hACE2 cells; Concentration 0.0411523) was 98.85%, the “cell viability (% of DMSO control)” value (A549-hACE2 cells; Concentration 0.123457) was 98.18% and the “cell viability (% of DMSO control)” value (A549-hACE2 cells; Concentration 0.37037) was 92.18%. The “cell viability (% of DMSO control)” value (A549-hACE2 cells; Concentration 1.11111) was 95.21%, the “cell viability (% of DMSO control)” value (A549-hACE2 cells; Concentration 3.33333) was 90.42% and the “cell viability (% of DMSO control)” value (A549-hACE2 cells; Concentration 10) was 87.86%. It also gave a CC50 (A549-hACE2 cells; human) of 32.7 ± 5.2 µM.
